Target: T1, COL3 (Homo sapiens, UniProt P02461)
T1 sequence (P02461 154-1221 limits assumed): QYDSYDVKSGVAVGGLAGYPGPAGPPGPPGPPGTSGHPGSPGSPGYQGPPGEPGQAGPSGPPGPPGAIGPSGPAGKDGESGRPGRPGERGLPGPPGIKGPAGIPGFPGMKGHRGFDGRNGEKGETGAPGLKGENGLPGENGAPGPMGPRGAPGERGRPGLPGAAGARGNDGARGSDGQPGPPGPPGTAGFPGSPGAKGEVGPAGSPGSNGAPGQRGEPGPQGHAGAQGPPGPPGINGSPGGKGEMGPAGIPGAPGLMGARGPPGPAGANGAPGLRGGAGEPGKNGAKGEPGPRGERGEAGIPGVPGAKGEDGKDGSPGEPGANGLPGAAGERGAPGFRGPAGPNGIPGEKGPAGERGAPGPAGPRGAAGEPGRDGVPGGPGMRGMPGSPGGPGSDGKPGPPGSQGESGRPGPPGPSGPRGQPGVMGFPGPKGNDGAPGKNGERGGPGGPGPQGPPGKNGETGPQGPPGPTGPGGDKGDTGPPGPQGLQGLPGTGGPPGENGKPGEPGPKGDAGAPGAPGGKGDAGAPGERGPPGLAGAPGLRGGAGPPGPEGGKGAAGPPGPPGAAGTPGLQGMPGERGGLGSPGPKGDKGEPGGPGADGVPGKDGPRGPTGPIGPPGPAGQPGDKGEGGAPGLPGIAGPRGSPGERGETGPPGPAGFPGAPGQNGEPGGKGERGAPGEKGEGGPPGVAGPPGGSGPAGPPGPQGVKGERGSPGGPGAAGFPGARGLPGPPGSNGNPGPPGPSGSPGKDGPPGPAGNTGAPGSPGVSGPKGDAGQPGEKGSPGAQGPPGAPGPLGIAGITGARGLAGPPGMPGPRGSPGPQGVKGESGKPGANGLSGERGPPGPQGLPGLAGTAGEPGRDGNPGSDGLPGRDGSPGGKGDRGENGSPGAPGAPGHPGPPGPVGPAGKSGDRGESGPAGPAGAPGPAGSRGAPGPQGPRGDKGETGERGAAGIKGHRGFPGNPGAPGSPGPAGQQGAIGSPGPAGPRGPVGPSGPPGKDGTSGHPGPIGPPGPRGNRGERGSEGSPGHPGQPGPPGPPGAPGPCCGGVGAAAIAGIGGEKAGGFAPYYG
Assay: Competition assay: Gd(III) tetrameric probe displaces Eu(III) monomeric probe from COL3
Assay type: binding
Settings: 5 µM Eu(III) monomeric probe, Gd tetrameric probe 0.01–200 µM, 1 h room temperature
Description: The binding interactions of the tetrameric Gd(III)-labelled probes with COL3 were studied by a competition assay, as Gd(III) is not suitable for TRF based assays. In competition assays, the binding of the Gd(III)-labelled tetrameric probe of interest to the target protein was measured by competition with the corresponding Eu(III)-labelled monomeric probe. Specifically, a row of wells was coated with collagen (COL3) and added with a constant amount of the Eu(III)-labelled probe of interest (e.g. Eu-DOTAMA-CBP1). Wells were then added and incubated with increasing concentrations of the corresponding tetrameric Gd(III)-labelled probes (e.g. [Gd-DOTAMA]4-CBP1). Displacement curves were then obtained by plotting the residual Eu(III) TRF against the concentration of the Gd(III)-labelled probe. Briefly, eight solutions were made containing a fixed concentration of Eu(III)-monomeric probe (5 µM) and increasing concentrations of the Gd-tetrameric probe (0.01–200 µM). Plates pre-coated with COL3 were simultaneously incubated with both compounds for 1 h at room temperature (triplicate wells per plate and 3 independent plates). After the incubation, the Eu(III) TRF assay protocol including the acid extraction and enhancement solution steps were used to measure the binding of the monomeric probe in the presence of the competing tetrameric probe, as previously described. […]

| Substance | displacement of the monomeric Eu(III)-labelled counterpart from COL3 (in words) |
| --- | --- |
| Ac-C-RDKKVAEQS [[Gd-DOTAMA]4-SccCBP1, scrambled tetrameric Gd probe (Ac-C-…), negative control] | cannot |
| Ac-C-TEFPLRMRDWLKN [[Gd-DOTAMA]4-CBP2, tetrameric probe: tri-lysine scaffold bearing four Gd-DOTAMA units conjugated at the N-terminus of CBP2] | can be observed only at very high concentrations |
